Source: patent publication US9062124B2, “GIP-based mixed agonists for treatment of metabolic disorders and obesity” (priority 2008, dated 2015)
Where a SMILES comes first, the peptide text is derived from it. [ ]: non-standard residue; d: D form. The star is where a group is joined. Stearoyl = CCCCCCCCCCCCCCCCCC(=O)*; Palmitoyl = CCCCCCCCCCCCCCCC(=O)*; Myristoyl = CCCCCCCCCCCCCC(=O)*; Aib = CC(C)(N)C(=O)O

Assays:
Assay type in all cases: cell-based
GLP-1 receptor = molecular target: T1, GLP-1 receptor (Homo sapiens, UniProt P43220); experiment: cAMP synthesis functional assay (firefly luciferase reporter in HEK293 cells), GLP-1 receptor; details: for EC50: GLP-1 Receptor EC50, cAMP luciferase reporter assay as in Example 16; for GLP-1 Receptor relative activity: relative to the standard (Std.) EC50 of the same run
T1 construct: expressed in transfected cells; host or cells: HEK293
T1 sequence (P43220 24-463, species assumed): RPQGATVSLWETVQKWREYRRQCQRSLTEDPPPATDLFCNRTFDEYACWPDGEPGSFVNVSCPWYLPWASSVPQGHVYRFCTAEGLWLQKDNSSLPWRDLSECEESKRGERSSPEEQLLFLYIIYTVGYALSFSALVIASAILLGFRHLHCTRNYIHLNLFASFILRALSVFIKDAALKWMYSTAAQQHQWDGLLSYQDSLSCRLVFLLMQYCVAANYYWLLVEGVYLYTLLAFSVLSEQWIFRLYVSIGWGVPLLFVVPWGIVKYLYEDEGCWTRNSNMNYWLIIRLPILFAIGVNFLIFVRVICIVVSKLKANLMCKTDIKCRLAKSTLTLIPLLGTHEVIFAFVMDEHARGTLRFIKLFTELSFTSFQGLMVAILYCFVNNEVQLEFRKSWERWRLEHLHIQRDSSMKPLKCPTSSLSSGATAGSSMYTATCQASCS

GIP receptor = molecular target: T2, GIP receptor (Homo sapiens, UniProt P48546); experiment: cAMP synthesis functional assay (firefly luciferase reporter in HEK293 cells), GIP receptor; details: for EC50: GIP Receptor EC50, cAMP luciferase reporter assay as in Example 16; for GIP Receptor relative activity: relative to the standard (Std.) EC50 of the same run
T2 construct: expressed in transfected cells; host or cells: HEK293
T2 sequence (P48546 22-466): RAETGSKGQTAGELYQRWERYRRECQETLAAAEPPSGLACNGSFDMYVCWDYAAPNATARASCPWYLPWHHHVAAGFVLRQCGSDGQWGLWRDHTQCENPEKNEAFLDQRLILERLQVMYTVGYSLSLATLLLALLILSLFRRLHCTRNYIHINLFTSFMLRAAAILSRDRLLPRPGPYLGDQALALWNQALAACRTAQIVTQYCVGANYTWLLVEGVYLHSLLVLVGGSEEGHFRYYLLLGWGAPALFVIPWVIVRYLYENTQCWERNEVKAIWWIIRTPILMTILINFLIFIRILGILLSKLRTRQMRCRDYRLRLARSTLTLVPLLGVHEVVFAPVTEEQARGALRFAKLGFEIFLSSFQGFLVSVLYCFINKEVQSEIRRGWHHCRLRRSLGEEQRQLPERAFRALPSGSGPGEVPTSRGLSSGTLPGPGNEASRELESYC

glucagon receptor = molecular target: T3, glucagon receptor (Homo sapiens, UniProt P47871); experiment: cAMP synthesis functional assay (firefly luciferase reporter in HEK293 cells), glucagon receptor; details: for EC50: Glucagon Receptor EC50, cAMP luciferase reporter assay as in Example 16; for Glucagon Receptor relative activity: relative to the standard (Std.) EC50 of the same run
T3 construct: expressed in transfected cells; host or cells: HEK293
T3 sequence (P47871 26-477): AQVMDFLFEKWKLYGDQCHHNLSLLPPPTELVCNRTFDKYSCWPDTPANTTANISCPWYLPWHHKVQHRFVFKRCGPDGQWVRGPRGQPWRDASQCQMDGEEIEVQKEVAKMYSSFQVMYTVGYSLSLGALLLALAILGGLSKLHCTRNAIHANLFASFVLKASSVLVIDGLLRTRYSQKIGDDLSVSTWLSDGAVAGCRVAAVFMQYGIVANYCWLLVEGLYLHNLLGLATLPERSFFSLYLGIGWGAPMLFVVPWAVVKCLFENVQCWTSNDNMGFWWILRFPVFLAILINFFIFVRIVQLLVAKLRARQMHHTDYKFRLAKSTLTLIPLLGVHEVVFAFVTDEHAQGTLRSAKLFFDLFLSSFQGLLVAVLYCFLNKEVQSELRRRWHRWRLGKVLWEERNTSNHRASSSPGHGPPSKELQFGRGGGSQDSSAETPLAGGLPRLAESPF

Compound	EC50 (GLP-1 receptor)	GLP-1 Receptor relative activity (GLP-1 receptor)	EC50 (GIP receptor)	GIP Receptor relative activity (GIP receptor)	EC50 (glucagon receptor)	Glucagon Receptor relative activity (glucagon receptor)
CCCCCCCCCCCCCCCC(=O)NCCCC[C@H](NC(=O)[C@H](CC(=O)O)NC(=O)[C@H](CO)NC(=O)[C@@H](NC(=O)[C@H](Cc1ccccc1)NC(=O)[C@@H](NC(=O)CNC(=O)[C@H](CCC(=O)O)NC(=O)C(C)(C)NC(=O)[C@@H](N)Cc1ccc(O)cc1)[C@@H](C)O)[C@@H](C)O)C(=O)N[C@@H](CO)C(=O)N[C@H](C(=O)N[C@@H](Cc1ccc(O)cc1)C(=O)N[C@@H](CC(C)C)C(=O)N[C@@H](CC(=O)O)C(=O)N[C@@H](CCCCN)C(=O)N[C@@H](CCC(N)=O)C(=O)N[C@@H](C)C(=O)N[C@@H](C)C(=O)NC(C)(C)C(=O)N[C@@H](CCC(=O)O)C(=O)N[C@@H](Cc1ccccc1)C(=O)N[C@H](C(=O)N[C@@H](CC(N)=O)C(=O)N[C@@H](Cc1c[nH]c2ccccc12)C(=O)N[C@@H](CC(C)C)C(=O)N[C@@H](CC(C)C)C(=O)N[C@@H](C)C(=O)NCC(=O)NCC(=O)N1CCC[C@H]1C(=O)N[C@@H](CO)C(=O)N[C@@H](CO)C(=O)NCC(=O)N[C@@H](C)C(=O)N1CCC[C@H]1C(=O)N1CCC[C@H]1C(=O)N1CCC[C@H]1C(=O)N[C@@H](CO)C(N)=O)C(C)C)[C@@H](C)CC [mt-270] (H-Y[Aib]EGTFTSDK(Palmitoyl)SIYLDKQAA[Aib]EFVNWLLAGGPSSGAPPPS-NH2; N-terminus assumed)	0.0093 nM	211.83%	0.0049 nM	163.27%	306 nM	0.06%
CCCCCCCCCCCCCCCCCC(=O)NCCCC[C@H](NC(=O)[C@H](CC(=O)O)NC(=O)[C@H](CO)NC(=O)[C@@H](NC(=O)[C@H](Cc1ccccc1)NC(=O)[C@@H](NC(=O)CNC(=O)[C@H](CCC(=O)O)NC(=O)C(C)(C)NC(=O)[C@@H](N)Cc1ccc(O)cc1)[C@@H](C)O)[C@@H](C)O)C(=O)N[C@@H](CO)C(=O)N[C@H](C(=O)N[C@@H](Cc1ccc(O)cc1)C(=O)N[C@@H](CC(C)C)C(=O)N[C@@H](CC(=O)O)C(=O)N[C@@H](CCCCN)C(=O)N[C@@H](CCC(N)=O)C(=O)N[C@@H](C)C(=O)N[C@@H](C)C(=O)NC(C)(C)C(=O)N[C@@H](CCC(=O)O)C(=O)N[C@@H](Cc1ccccc1)C(=O)N[C@H](C(=O)N[C@@H](CC(N)=O)C(=O)N[C@@H](Cc1c[nH]c2ccccc12)C(=O)N[C@@H](CC(C)C)C(=O)N[C@@H](CC(C)C)C(=O)N[C@@H](C)C(=O)NCC(=O)NCC(=O)N1CCC[C@H]1C(=O)N[C@@H](CO)C(=O)N[C@@H](CO)C(=O)NCC(=O)N[C@@H](C)C(=O)N1CCC[C@H]1C(=O)N1CCC[C@H]1C(=O)N1CCC[C@H]1C(=O)N[C@@H](CO)C(N)=O)C(C)C)[C@@H](C)CC [mt-271] (H-Y[Aib]EGTFTSDK(Stearoyl)SIYLDKQAA[Aib]EFVNWLLAGGPSSGAPPPS-NH2; N-terminus assumed)	0.0106 nM	185.85%	0.0056 nM	142.86%	113 nM	0.17%
CC[C@H](C)[C@H](NC(=O)[C@H](CO)NC(=O)[C@H](CCCCN)NC(=O)[C@H](CC(=O)O)NC(=O)[C@H](CO)NC(=O)[C@@H](NC(=O)[C@H](Cc1ccccc1)NC(=O)[C@@H](NC(=O)CNC(=O)[C@H](CCC(=O)O)NC(=O)C(C)(C)NC(=O)[C@@H](N)Cc1ccc(O)cc1)[C@@H](C)O)[C@@H](C)O)C(=O)N[C@@H](Cc1ccc(O)cc1)C(=O)N[C@@H](CC(C)C)C(=O)N[C@@H](CC(=O)O)C(=O)N[C@@H](CCCCN)C(=O)N[C@@H](CCC(N)=O)C(=O)N[C@@H](C)C(=O)N[C@@H](C)C(=O)NC(C)(C)C(=O)N[C@@H](CCC(=O)O)C(=O)N[C@@H](Cc1ccccc1)C(=O)N[C@H](C(=O)N[C@@H](CC(N)=O)C(=O)N[C@@H](Cc1c[nH]c2ccccc12)C(=O)N[C@@H](CC(C)C)C(=O)N[C@@H](CC(C)C)C(=O)N[C@@H](C)C(=O)NCC(=O)NCC(=O)N1CCC[C@H]1C(=O)N[C@@H](CO)C(=O)N[C@@H](CO)C(=O)NCC(=O)N[C@@H](C)C(=O)N1CCC[C@H]1C(=O)N1CCC[C@H]1C(=O)N1CCC[C@H]1C(=O)N[C@@H](CO)C(N)=O)C(C)C [mt-272] (H-Y[Aib]EGTFTSDKSIYLDKQAA[Aib]EFVNWLLAGGPSSGAPPPS-NH2; N-terminus assumed)	1.23 nM	1.60%	0.0241 nM	33.20%	1060 nM	0.02%
CCCCCCCCCCCCCC(=O)NCCCC[C@H](NC(=O)[C@H](CC(=O)O)NC(=O)[C@H](CO)NC(=O)[C@@H](NC(=O)[C@H](Cc1ccccc1)NC(=O)[C@@H](NC(=O)CNC(=O)[C@H](CCC(=O)O)NC(=O)C(C)(C)NC(=O)[C@@H](N)Cc1ccc(O)cc1)[C@@H](C)O)[C@@H](C)O)C(=O)N[C@@H](CO)C(=O)N[C@H](C(=O)N[C@@H](Cc1ccc(O)cc1)C(=O)N[C@@H](CC(C)C)C(=O)N[C@@H](CC(=O)O)C(=O)N[C@@H](CCCCN)C(=O)N[C@@H](CCC(N)=O)C(=O)N[C@@H](C)C(=O)N[C@@H](C)C(=O)NC(C)(C)C(=O)N[C@@H](CCC(=O)O)C(=O)N[C@@H](Cc1ccccc1)C(=O)N[C@H](C(=O)N[C@@H](CC(N)=O)C(=O)N[C@@H](Cc1c[nH]c2ccccc12)C(=O)N[C@@H](CC(C)C)C(=O)N[C@@H](CC(C)C)C(=O)N[C@@H](C)C(=O)NCC(N)=O)C(C)C)[C@@H](C)CC [mt-282] (H-Y[Aib]EGTFTSDK(Myristoyl)SIYLDKQAA[Aib]EFVNWLLAG-NH2; N-terminus assumed)	0.0134 nM	44.03%	–	76.69%	2.44 nM	1.18%
CCCCCCCCCCCCCCCC(=O)NCCCC[C@H](NC(=O)[C@H](CC(=O)O)NC(=O)[C@H](CO)NC(=O)[C@@H](NC(=O)[C@H](Cc1ccccc1)NC(=O)[C@@H](NC(=O)CNC(=O)[C@H](CCC(=O)O)NC(=O)C(C)(C)NC(=O)[C@@H](N)Cc1ccc(O)cc1)[C@@H](C)O)[C@@H](C)O)C(=O)N[C@@H](CO)C(=O)N[C@H](C(=O)N[C@@H](Cc1ccc(O)cc1)C(=O)N[C@@H](CC(C)C)C(=O)N[C@@H](CC(=O)O)C(=O)N[C@@H](CCCCN)C(=O)N[C@@H](CCC(N)=O)C(=O)N[C@@H](C)C(=O)N[C@@H](C)C(=O)NC(C)(C)C(=O)N[C@@H](CCC(=O)O)C(=O)N[C@@H](Cc1ccccc1)C(=O)N[C@H](C(=O)N[C@@H](CC(N)=O)C(=O)N[C@@H](Cc1c[nH]c2ccccc12)C(=O)N[C@@H](CC(C)C)C(=O)N[C@@H](CC(C)C)C(=O)N[C@@H](C)C(=O)NCC(N)=O)C(C)C)[C@@H](C)CC [mt-283] (H-Y[Aib]EGTFTSDK(Palmitoyl)SIYLDKQAA[Aib]EFVNWLLAG-NH2; N-terminus assumed)	0.0158 nM	37.34%	–	83.61%	7.94 nM	0.36%
CCCCCCCCCCCCCCCCCC(=O)NCCCC[C@H](NC(=O)[C@H](CC(=O)O)NC(=O)[C@H](CO)NC(=O)[C@@H](NC(=O)[C@H](Cc1ccccc1)NC(=O)[C@@H](NC(=O)CNC(=O)[C@H](CCC(=O)O)NC(=O)C(C)(C)NC(=O)[C@@H](N)Cc1ccc(O)cc1)[C@@H](C)O)[C@@H](C)O)C(=O)N[C@@H](CO)C(=O)N[C@H](C(=O)N[C@@H](Cc1ccc(O)cc1)C(=O)N[C@@H](CC(C)C)C(=O)N[C@@H](CC(=O)O)C(=O)N[C@@H](CCCCN)C(=O)N[C@@H](CCC(N)=O)C(=O)N[C@@H](C)C(=O)N[C@@H](C)C(=O)NC(C)(C)C(=O)N[C@@H](CCC(=O)O)C(=O)N[C@@H](Cc1ccccc1)C(=O)N[C@H](C(=O)N[C@@H](CC(N)=O)C(=O)N[C@@H](Cc1c[nH]c2ccccc12)C(=O)N[C@@H](CC(C)C)C(=O)N[C@@H](CC(C)C)C(=O)N[C@@H](C)C(=O)NCC(N)=O)C(C)C)[C@@H](C)CC [mt-284] (H-Y[Aib]EGTFTSDK(Stearoyl)SIYLDKQAA[Aib]EFVNWLLAG-NH2; N-terminus assumed)	0.0155 nM	38.06%	–	54.84%	4.17 nM	0.69%
CC[C@H](C)[C@H](NC(=O)[C@H](CO)NC(=O)[C@H](Cc1ccc(O)cc1)NC(=O)[C@H](CC(=O)O)NC(=O)[C@H](CO)NC(=O)[C@@H](NC(=O)[C@H](Cc1ccccc1)NC(=O)[C@@H](NC(=O)CNC(=O)[C@H](CCC(=O)O)NC(=O)C(C)(C)NC(=O)[C@@H](N)Cc1ccc(O)cc1)[C@@H](C)O)[C@@H](C)O)C(=O)N[C@@H](Cc1ccc(O)cc1)C(=O)N[C@@H](CC(C)C)C(=O)N[C@@H](CC(=O)O)C(=O)N[C@@H](CCCCN)C(=O)N[C@@H](CCC(N)=O)C(=O)N[C@@H](C)C(=O)N[C@@H](C)C(=O)NC(C)(C)C(=O)N[C@@H](CCC(=O)O)C(=O)N[C@@H](Cc1ccccc1)C(=O)N[C@H](C(=O)N[C@@H](CS)C(=O)N[C@@H](Cc1c[nH]c2ccccc12)C(=O)N[C@@H](CC(C)C)C(=O)N[C@@H](CC(C)C)C(=O)N[C@@H](C)C(=O)NCC(=O)NCC(=O)N1CCC[C@H]1C(=O)N[C@@H](CO)C(=O)N[C@@H](CO)C(=O)NCC(=O)N[C@@H](C)C(=O)N1CCC[C@H]1C(=O)N1CCC[C@H]1C(=O)N1CCC[C@H]1C(=O)N[C@@H](CO)C(=O)N[C@@H](CCCCN)C(N)=O)C(C)C [mt-308]	–	68.35%	0.0057 nM	285.96%	12.2 nM	0.39%
